The values below come from publication PMC4817054, “Expansion of a bitter taste receptor family in a polyphagous insect herbivore” (Scientific Reports, 2016).

Each structure is given as a SMILES string.

As a reminder, the EC50 is the midpoint of the concentration-response curve. Read a high EC50 as weaker potency.

For this test, the system named is HarmGR195. Particulars: agonist; HarmGR195 expressed alone; SEM, N = 3; HBSS.

Compound `O=C(O)[C@@H]1CCCN1` [proline] showed a concentration giving a half-maximal response (EC50) of 43 ± 7 mM.
